Test results taken from US9242987B2, “Heterocyclyl pyrazolopyrimidine analogues as JAK inhibitors” (Cellzome Limited, priority 2009, dated 2016).

Experiments:
JAK3 = molecular target: T1, JAK3 (Homo sapiens, UniProt P52333); test: Kinobeads assay, JAK3; format: binding; conditions: mixed Molt4/Ramos cell lysate, dot blot detection
T1 construct: endogenous in cells; host or cells: Mixed Molt4/Ramos lysate (1:2)
T1 sequence (P52333 1-1124): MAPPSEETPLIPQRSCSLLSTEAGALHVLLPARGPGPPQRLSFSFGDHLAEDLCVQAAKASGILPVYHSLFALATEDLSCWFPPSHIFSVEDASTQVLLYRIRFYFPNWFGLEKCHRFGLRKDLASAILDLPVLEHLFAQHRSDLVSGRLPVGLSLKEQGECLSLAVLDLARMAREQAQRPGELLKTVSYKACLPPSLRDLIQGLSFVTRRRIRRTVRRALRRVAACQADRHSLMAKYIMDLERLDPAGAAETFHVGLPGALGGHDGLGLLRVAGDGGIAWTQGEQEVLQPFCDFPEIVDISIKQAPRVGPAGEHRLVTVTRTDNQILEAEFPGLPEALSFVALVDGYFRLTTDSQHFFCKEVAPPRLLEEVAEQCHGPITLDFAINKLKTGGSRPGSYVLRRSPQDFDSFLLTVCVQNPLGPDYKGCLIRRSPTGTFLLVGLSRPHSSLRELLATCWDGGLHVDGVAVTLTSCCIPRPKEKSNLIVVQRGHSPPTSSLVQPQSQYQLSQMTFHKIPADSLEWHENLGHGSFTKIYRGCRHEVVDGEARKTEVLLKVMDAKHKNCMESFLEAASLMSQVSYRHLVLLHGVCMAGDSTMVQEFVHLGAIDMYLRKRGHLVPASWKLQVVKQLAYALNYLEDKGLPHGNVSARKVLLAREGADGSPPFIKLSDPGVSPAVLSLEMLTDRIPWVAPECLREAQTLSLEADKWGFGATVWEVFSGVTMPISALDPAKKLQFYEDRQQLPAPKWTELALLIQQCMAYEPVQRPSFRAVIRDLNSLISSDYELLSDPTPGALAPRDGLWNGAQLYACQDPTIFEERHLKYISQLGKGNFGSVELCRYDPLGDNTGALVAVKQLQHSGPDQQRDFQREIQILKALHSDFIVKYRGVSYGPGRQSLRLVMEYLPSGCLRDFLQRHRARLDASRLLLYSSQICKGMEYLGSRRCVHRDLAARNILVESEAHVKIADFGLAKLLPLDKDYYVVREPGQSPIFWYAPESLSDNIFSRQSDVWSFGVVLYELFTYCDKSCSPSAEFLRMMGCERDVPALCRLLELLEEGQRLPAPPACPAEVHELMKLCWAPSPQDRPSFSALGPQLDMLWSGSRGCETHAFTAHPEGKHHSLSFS
Experimental: (§1) The compounds of the present invention as described in the previous examples were tested in a Kinobeads™ assay as described for ZAP-70 (WO-A 2007/137867). Briefly, test compounds (at various concentrations) and the affinity matrix with the immobilized aminopyrido-pyrimidine ligand 24 were added to cell lysate aliquots and allowed to bind to the proteins in the lysate sample. After the incubation time the beads with captured proteins were separated from the lysate. Bound proteins were then eluted and the presence of JAK2 and JAK3 was detected and quantified using specific antibodies in a dot blot procedure and the Odyssey infrared detection system. Dose response curves for individual kinases were generated and IC50 values calculated. Kinobeads™ assays for ZAP-70 (WO-A 2007/137867) and for kinase selectivity profiling (WO-A 2006/134056) have been previously described.
(§2) The affinity matrix was washed two times with 15 mL of 1×DP buffer containing 0.2% NP40 (IGEPAL® CA-630, Sigma, #13021) and then resuspended in 1×DP buffer containing 0.2% NP40 (3% beads slurry).
(§3) 5×DP buffer: 250 mM Tris-HCl pH 7.4, 25% Glycerol, 7.5 mM MgCl2, 750 mM NaCl, 5 mM Na3VO4; filter the 5×DP buffer through a 0.22 μm filter and store in aliquots at −80° C. The 5×DP buffer is diluted with H2O to 1×DP buffer containing 1 mM DTT and 25 mM NaF.
(§4) Stock solutions of test compounds were prepared in DMSO. In a 96 well plate 30 μL solution of diluted test compounds at 5 mM in DMSO were prepared. Starting with this solution a 1:3 dilution series (9 steps) was prepared. For control experiments (no test compound) a buffer containing 2% DMSO was used.
(§5) Molt4 cells (ATCC catalogue number CRL-1582) and Ramos cells (ATCC catalogue number CRL-1596) were grown in 1 L Spinner flasks (Integra Biosciences, #182101) in suspension in RPMI 1640 medium (Invitrogen, #21875-034) supplemented with 10% Fetal Bovine Serum (Invitrogen) at a density between 0.15×10^6 and 1.2×10^6 cells/mL. Cells were harvested by centrifugation, washed once with 1×PBS buffer (Invitrogen, #14190-094) and cell pellets were frozen in liquid nitrogen and subsequently stored at −80° C. Cells were homogenized in a Potter S homogenizer in lysis buffer: 50 mM Tris-HCl, 0.8% NP40, 5% glycerol, 150 mM NaCl, 1.5 mM MgCl2, 25 mM NaF, 1 mM sodium vanadate, 1 mM DTT, pH 7.5. One complete EDTA-free tablet (protease inhibitor cocktail, Roche Diagnostics, 1873580) per 25 mL buffer was added. The material was dounced 10 times using a mechanized POTTER S, transferred to 50 mL falcon tubes, incubated for 30 minutes on ice and spun down for 10 minutes at 20,000 g at 4° C. (10,000 rpm in Sorvall SLA600, precooled). The supernatant was transferred to an ultracentrifuge (UZ)-polycarbonate tube (Beckmann, 355654) and spun for 1 hour at 100.000 g at 4° C. (33.500 rpm in Ti50.2, precooled). The supernatant was transferred again to a fresh 50 mL falcon tube, the protein concentration was determined by a Bradford assay (BioRad) and samples containing 50 mg of protein per aliquot were prepared. The samples were immediately used for experiments or frozen in liquid nitrogen and stored frozen at −80° C.
(§6) Cell lysate (approximately 50 mg protein per plate) was thawed in a water bath at room temperature and then stored on ice. To the thawed cell lysate 1×DP 0.8% NP40 buffer containing protease inhibitors (1 tablet for 25 mL buffer; EDTA-free protease inhibitor cocktail; Roche Diagnostics 1873580) was added in order to reach a final protein concentration of 10 mg/mL total protein. The diluted cell lysate was stored on ice. Mixed Molt4/Ramos lysate was prepared by combining one volume of Molt4 lysate and two volumes of Ramos lysate (ratio 1:2).
(§7) To a 96 well filter plate (Multiscreen HTS, BV Filter Plates, Millipore #MSBVN1250) were added per well: 100 μL affinity matrix (3% beads slurry), […], of compound solution, and 50 μL of diluted lysate. […]

JAK2 = molecular target: T2, JAK2 (Homo sapiens, UniProt O60674); test: Kinobeads assay, JAK2; format: binding; conditions: mixed Molt4/Ramos cell lysate, dot blot detection
T2 construct: endogenous in cells; host or cells: Mixed Molt4/Ramos lysate (1:2)
T2 sequence (O60674 whole entry): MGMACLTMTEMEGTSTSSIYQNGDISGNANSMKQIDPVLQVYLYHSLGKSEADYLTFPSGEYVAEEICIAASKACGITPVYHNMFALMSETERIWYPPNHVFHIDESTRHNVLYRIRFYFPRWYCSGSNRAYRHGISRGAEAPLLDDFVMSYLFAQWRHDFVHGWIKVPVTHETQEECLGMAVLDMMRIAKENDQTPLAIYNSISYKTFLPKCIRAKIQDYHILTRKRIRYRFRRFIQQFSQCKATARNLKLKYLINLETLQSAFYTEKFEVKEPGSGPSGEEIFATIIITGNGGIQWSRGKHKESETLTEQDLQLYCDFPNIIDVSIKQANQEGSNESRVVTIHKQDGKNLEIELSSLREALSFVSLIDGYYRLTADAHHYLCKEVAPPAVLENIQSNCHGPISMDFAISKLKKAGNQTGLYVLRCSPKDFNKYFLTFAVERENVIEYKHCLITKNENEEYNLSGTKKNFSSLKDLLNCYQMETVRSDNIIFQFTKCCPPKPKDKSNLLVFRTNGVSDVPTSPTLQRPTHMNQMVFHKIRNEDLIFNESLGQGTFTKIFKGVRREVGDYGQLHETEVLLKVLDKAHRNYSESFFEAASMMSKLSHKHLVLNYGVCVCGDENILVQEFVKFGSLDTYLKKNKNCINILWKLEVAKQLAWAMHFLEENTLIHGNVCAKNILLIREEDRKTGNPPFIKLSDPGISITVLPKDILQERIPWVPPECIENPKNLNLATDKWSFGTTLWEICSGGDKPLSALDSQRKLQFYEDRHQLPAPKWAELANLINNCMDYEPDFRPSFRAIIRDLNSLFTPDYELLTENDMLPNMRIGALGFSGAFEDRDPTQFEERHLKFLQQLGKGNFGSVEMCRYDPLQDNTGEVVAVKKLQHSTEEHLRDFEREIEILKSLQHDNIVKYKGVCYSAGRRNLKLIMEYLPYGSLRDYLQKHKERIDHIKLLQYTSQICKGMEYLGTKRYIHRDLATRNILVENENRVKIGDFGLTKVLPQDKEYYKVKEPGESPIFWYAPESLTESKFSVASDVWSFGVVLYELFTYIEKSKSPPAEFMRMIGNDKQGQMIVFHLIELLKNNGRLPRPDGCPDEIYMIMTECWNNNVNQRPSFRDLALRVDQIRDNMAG
Experimental: as §1, §2, §3, §4, §5, §6, §7

SMILES | IC50 (JAK3) [nM] | IC50 (JAK2) [nM]
CN(c1ccc(-n2ncc3cnc(Nc4cnn(C)c4)nc32)cc1)S(C)(=O)=O [Example 17, N-Methyl-N-(4-(6-(1-methyl-1H-pyrazol-4-ylamino)-1H-pyrazolo[3,4-d]pyrimidin-1-yl)phenyl)methanesulfonamide] | 100 to 1000 | 100 to 1000
Cn1cc(Nc2ncc3cnn(-c4ccc(NS(C)(=O)=O)cc4)c3n2)cn1 [Example 18, N-(4-(6-(1-Methyl-1H-pyrazol-4-ylamino)-1H-pyrazolo[3,4-d]pyrimidin-1-yl)phenyl)methanesulfonamide] | < 100 | 100 to 1000
CC(C)n1ccc(Nc2ncc3cnn(Cc4ccccc4C#N)c3n2)n1 [Example 19, 2-((6-(1-Isopropyl-1H-pyrazol-3-ylamino)-1H-pyrazolo[3,4-d]pyrimidin-1-yl)methyl)benzonitrile] | 1000 to 10000 | ≥ 10000
N#CCCCn1cc(Nc2ncc3cnn(Cc4ccccc4C#N)c3n2)cn1 [Example 20, 2-((6-(1-(3-Cyanopropyl)-1H-pyrazol-4-ylamino)-1H-pyrazolo[3,4-d]pyrimidin-1-yl)methyl)benzonitrile] | < 100 | 1000 to 10000
CCCn1cc(Nc2ncc3cnn(Cc4ccccc4C#N)c3n2)c(C)n1 [Example 21, 2-((6-(3-Methyl-1-propyl-1H-pyrazol-4-ylamino)-1H-pyrazolo[3,4-d]pyrimidin-1-yl)methyl)benzonitrile] | 100 to 1000 | ≥ 10000
Cc1nn(CC(F)F)cc1Nc1ncc2cnn(Cc3ccccc3C#N)c2n1 [Example 22, 2-((6-(1-(2,2-Difluoroethyl)-3-methyl-1H-pyrazol-4-ylamino)-1H-pyrazolo[3,4-d]pyrimidin-1-yl)methyl)benzonitrile] | < 100 | ≥ 10000
COCCn1cc(Nc2ncc3cnn(Cc4ccccc4C#N)c3n2)c(C)n1 [Example 23, 2-((6-(1-(2-methoxyethyl)-3-methyl-1H-pyrazol-4-ylamino)-1H-pyrazolo[3,4-d]pyrimidin-1-yl)methyl)benzonitrile] | 100 to 1000 | ≥ 10000
COc1nn(CC(F)F)cc1Nc1ncc2cnn(Cc3ccccc3C#N)c2n1 [Example 24, 2-((6-(1-(2,2-Difluoroethyl)-3-methoxy-1H-pyrazol-4-ylamino)-1H-pyrazolo[3,4-d]pyrimidin-1-yl)methyl)benzonitrile] | < 100 | ≥ 10000
N#Cc1ccccc1Cn1ncc2cnc(Nc3cnn(CCO)c3)nc21 [Example 25, 2-((6-(1-(2-Hydroxyethyl)-1H-pyrazol-4-ylamino)-1H-pyrazolo[3,4-d]pyrimidin-1-yl)methyl)benzonitrile] | < 100 | 1000 to 10000
CC(c1ccccc1F)n1ncc2cnc(Nc3cnn(C)c3)nc21 (stereo not shown) [Example 26, 1-(1-(2-Fluorophenyl)ethyl)-N-(1-methyl-1H-pyrazol-4-yl)-1H-pyrazolo[3,4-d]pyrimidin-6-amine] | 100 to 1000 | ≥ 10000
Cn1cc(Nc2ncc3cnn(Cc4ccccc4Cl)c3n2)cn1 [Example 27, 1-(2-Chlorobenzyl)-N-(1-methyl-1H-pyrazol-4-yl)-1H-pyrazolo[3,4-d]pyrimidin-6-amine] | < 100 | 1000 to 10000
COCCn1cc(Nc2ncc3cnn(Cc4ccccc4F)c3n2)cn1 [Example 28, 1-(2-Fluorobenzyl)-N-(1-(2-methoxyethyl)-1H-pyrazol-4-yl)-1H-pyrazolo[3,4-d]pyrimidin-6-amine] | < 100 | 1000 to 10000
Cn1cc(Nc2ncc3cnn(Cc4c(F)cccc4F)c3n2)cn1 [Example 29, 1-(2,6-Difluorobenzyl)-N-(1-methyl-1H-pyrazol-4-yl)-1H-pyrazolo[3,4-d]pyrimidin-6-amine] | < 100 | 1000 to 10000
Cn1cc(Nc2ncc3cnn(Cc4cc(F)ccc4F)c3n2)cn1 [Example 30, 1-(2,5-Difluorobenzyl)-N-(1-methyl-1H-pyrazol-4-yl)-1H-pyrazolo[3,4-d]pyrimidin-6-amine] | < 100 | < 100
